Measurements as given in PubChem BioAssay (NCI).
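Interpolation was linear, between the two tested concentrations surrounding the appropriate level; five concentrations were tested over 48 hours in 96-well plates. TGI denotes the concentration required for complete inhibition of growth.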

Assays:
Experiment in all cases: DTP human tumour cell line panel, 48 h
COLO 205 colon = tested on: COLO 205 colon
SF-295 CNS = tested on: SF-295 CNS
NCI-H522 lung = tested on: NCI-H522 lung
RPMI-8226 leukemia = tested on: RPMI-8226 leukemia
SK-MEL-28 melanoma = tested on: SK-MEL-28 melanoma
EKVX NSCLC = tested on: EKVX NSCLC
DMS 273 small cell lung = tested on: DMS 273 small cell lung
TK-10 renal = tested on: TK-10 renal
NCI-H460 lung = tested on: NCI-H460 lung
HCT-15 colon = tested on: HCT-15 colon
M14 melanoma = tested on: M14 melanoma
HCC-2998 colon = tested on: HCC-2998 colon
K-562 leukemia = tested on: K-562 leukemia
SF-268 CNS = tested on: SF-268 CNS
SR leukemia = tested on: SR leukemia
SNB-19 CNS = tested on: SNB-19 CNS
SNB-75 CNS = tested on: SNB-75 CNS
NCI-H226 lung = tested on: NCI-H226 lung
OVCAR-4 ovarian = tested on: OVCAR-4 ovarian
SF-539 CNS = tested on: SF-539 CNS
KM12 colon = tested on: KM12 colon
HT29 colon = tested on: HT29 colon
SN12C renal = tested on: SN12C renal
RXF 393 renal = tested on: RXF 393 renal
UACC-62 melanoma = tested on: UACC-62 melanoma
OVCAR-5 ovarian = tested on: OVCAR-5 ovarian
SK-MEL-5 melanoma = tested on: SK-MEL-5 melanoma
KM20L2 colon = tested on: KM20L2 colon
HL-60(TB) leukemia = tested on: HL-60(TB) leukemia
MALME-3M melanoma = tested on: MALME-3M melanoma
MOLT-4 leukemia = tested on: MOLT-4 leukemia
A549 NSCLC = tested on: A549 NSCLC
HOP-18 NSCLC = tested on: HOP-18 NSCLC
UO-31 renal = tested on: UO-31 renal
SW-620 colon = tested on: SW-620 colon
M19-MEL melanoma = tested on: M19-MEL melanoma
IGROV1 ovarian = tested on: IGROV1 ovarian
SNB-78 CNS = tested on: SNB-78 CNS
SK-MEL-2 melanoma = tested on: SK-MEL-2 melanoma
UACC-257 melanoma = tested on: UACC-257 melanoma
DLD-1 colon = tested on: DLD-1 colon
XF 498 CNS = tested on: XF 498 CNS
OVCAR-8 ovarian = tested on: OVCAR-8 ovarian
SK-OV-3 ovarian = tested on: SK-OV-3 ovarian
786-0 renal = tested on: 786-0 renal
LXFL 529 NSCLC = tested on: LXFL 529 NSCLC
ACHN renal = tested on: ACHN renal
U251 CNS = tested on: U251 CNS
OVCAR-3 ovarian = tested on: OVCAR-3 ovarian
CCRF-CEM leukemia = tested on: CCRF-CEM leukemia
NCI-H23 lung = tested on: NCI-H23 lung
LOX IMVI melanoma = tested on: LOX IMVI melanoma
HCT-116 colon = tested on: HCT-116 colon
HOP-92 NSCLC = tested on: HOP-92 NSCLC
A498 renal = tested on: A498 renal
HOP-62 NSCLC = tested on: HOP-62 NSCLC
CAKI-1 renal = tested on: CAKI-1 renal

Measured: TGI

NC1=NS(=O)(=O)Nc2nc(-c3ccccc3)c(-c3ccccc3)nc21
not listed: A498 renal | HOP-62 NSCLC | CAKI-1 renal
> 100 µM: all other assays above

O=C(Nc1nc2ncn(CCNCCn3cnc4nc(NC(=O)c5ccccc5)[nH]c(=O)c43)c2c(=O)[nH]1)c1ccccc1
not listed: SR leukemia
> 100 µM: all other assays above
